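Briefly, cells in 96-well plates were exposed to five compound concentrations for 48 h, and endpoints were estimated by linear interpolation. At the GI50, growth is halved.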 Calls of active or inactive are those of the source. No stated cut-off is given here; in the data, active = GI50 up to about 1.1 µM and inactive = higher.
Key:
Experiment in all cases: NCI anticancer screen, dose series, 48 h
[1] = tested on: NCI-H23
[2] = tested on: SF-268
[3] = tested on: HT-29
[4] = tested on: SNB-75
[5] = tested on: SK-MEL-2
[6] = tested on: RXF 393
[7] = tested on: SK-MEL-28
[8] = tested on: UO-31
[9] = tested on: OVCAR-5
[10] = tested on: RPMI-8226
[11] = tested on: HCC 2998
[12] = tested on: SF-295
[13] = tested on: MOLT-4
[14] = tested on: A549
[15] = tested on: A498
[16] = tested on: KM12
[17] = tested on: SN12C
[18] = tested on: DLD-1
[19] = tested on: DMS-273
[20] = tested on: EKVX
[21] = tested on: MCF7
[22] = tested on: CAKI-1
[23] = tested on: NCI/ADR-RES
[24] = tested on: SF-539
[25] = tested on: OVCAR-4
[26] = tested on: CCRF-CEM
[27] = tested on: SNB-78
[28] = tested on: DMS-114
[29] = tested on: OVCAR-3
[30] = tested on: K562
[31] = tested on: SK-OV-3
[32] = tested on: M19-MEL
[33] = tested on: IGROV-1
[34] = tested on: XF498
[35] = tested on: HOP-92
[36] = tested on: HL-60
[37] = tested on: HCT-116
[38] = tested on: UACC-257
[39] = tested on: SW-620
[40] = tested on: KM-20L2
[41] = tested on: Malme-3M
[42] = tested on: NCI-H226
[43] = tested on: NCI-H460
[44] = tested on: SK-MEL-5
[45] = tested on: U-251
[46] = tested on: NCI-H522
[47] = tested on: HCT-15
[48] = tested on: UACC-62
[49] = tested on: SNB-19
[50] = tested on: HOP-18
[51] = tested on: LOX IMVI
[52] = tested on: OVCAR-8
[53] = tested on: COLO 205
[54] = tested on: HOP-62
[55] = tested on: LXFL 529
[56] = tested on: TK-10
[57] = tested on: 786-0
[58] = tested on: M14

COc1ccccc1Cc1nc(-c2ccccc2)nn(C2OC(COC(C)=O)C(OC(C)=O)C(OC(C)=O)C2OC(C)=O)c1=S (stereo not drawn)
GI50 [1]: 11.2 µM (inactive) | GI50 [2]: 6.1 µM (inactive) | GI50 [3]: > 48.3 µM (inactive) | GI50 [4]: 3.08 µM (inactive) | GI50 [5]: 11.3 µM (inactive) | GI50 [6]: 3.13 µM (inactive) | GI50 [7]: 49.2 µM (inactive) | GI50 [8]: > 48.2 µM (inactive) | GI50 [9]: > 100 µM (inactive) | GI50 [10]: 21.8 µM (inactive) | GI50 [11]: > 24.8 µM (inactive) | GI50 [12]: 8.15 µM (inactive) | GI50 [13]: > 60 µM (inactive) | GI50 [14]: 16.4 µM (inactive) | GI50 [15]: 10.2 µM (inactive) | GI50 [16]: > 54.6 µM (inactive) | GI50 [17]: 9.35 µM (inactive) | GI50 [18]: > 31.3 µM (inactive) | GI50 [19]: > 39.2 µM (inactive) | GI50 [20]: 25.1 µM (inactive) | GI50 [21]: 6.84 µM (inactive) | GI50 [22]: 16.8 µM (inactive) | GI50 [23]: 9.1 µM (inactive) | GI50 [24]: 9.14 µM (inactive) | GI50 [25]: 3.31 µM (inactive) | GI50 [26]: > 100 µM (inactive) | GI50 [27]: 18.2 µM (inactive) | GI50 [28]: 27.6 µM (inactive) | GI50 [29]: 21.6 µM (inactive) | GI50 [30]: > 58.3 µM (inactive) | GI50 [31]: 36.7 µM (inactive) | GI50 [32]: 32.7 µM (inactive) | GI50 [33]: 31.1 µM (inactive) | GI50 [34]: 1.86 µM (inactive) | GI50 [35]: 7.31 µM (inactive) | GI50 [36]: > 64.7 µM (inactive) | GI50 [37]: 10.1 µM (inactive) | GI50 [38]: 54.3 µM (inactive) | GI50 [39]: > 72.8 µM (inactive) | GI50 [40]: 29.1 µM (inactive) | GI50 [41]: 5.53 µM (inactive) | GI50 [42]: 30.5 µM (inactive) | GI50 [43]: > 43.9 µM (inactive) | GI50 [44]: 8.73 µM (inactive) | GI50 [45]: 13.2 µM (inactive) | GI50 [46]: 6.5 µM (inactive) | GI50 [47]: 21.5 µM | GI50 [48]: 14.5 µM (inactive) | GI50 [49]: 5.75 µM (inactive) | GI50 [50]: 27.9 µM (inactive) | GI50 [51]: 11.2 µM (inactive) | GI50 [52]: 5.64 µM (inactive) | GI50 [53]: > 40.4 µM (inactive) | GI50 [54]: 10.1 µM (inactive)

CC1C(=O)C(C)C(c2cccs2)N(N=O)C1c1cccs1 (stereo not drawn)
GI50 [1]: > 100 µM (inactive) | GI50 [2]: > 100 µM (inactive) | GI50 [3]: > 35 µM (inactive) | GI50 [4]: 28.1 µM (inactive) | GI50 [5]: > 89.9 µM (inactive) | GI50 [6]: > 100 µM (inactive) | GI50 [7]: > 100 µM (inactive) | GI50 [8]: > 100 µM (inactive) | GI50 [9]: > 100 µM (inactive) | GI50 [10]: > 100 µM (inactive) | GI50 [11]: > 100 µM (inactive) | GI50 [12]: > 100 µM (inactive) | GI50 [13]: > 100 µM (inactive) | GI50 [14]: > 100 µM (inactive) | GI50 [16]: > 100 µM (inactive) | GI50 [17]: > 100 µM (inactive) | GI50 [18]: > 100 µM (inactive) | GI50 [19]: > 100 µM (inactive) | GI50 [20]: > 100 µM (inactive) | GI50 [21]: > 100 µM (inactive) | GI50 [22]: > 100 µM (inactive) | GI50 [23]: > 100 µM (inactive) | GI50 [24]: > 100 µM (inactive) | GI50 [25]: > 100 µM (inactive) | GI50 [26]: > 100 µM (inactive) | GI50 [27]: > 68.2 µM (inactive) | GI50 [28]: 95.1 µM (inactive) | GI50 [29]: 9.27 µM (inactive) | GI50 [30]: > 80.5 µM (inactive) | GI50 [31]: > 56 µM (inactive) | GI50 [32]: > 100 µM (inactive) | GI50 [33]: > 100 µM (inactive) | GI50 [34]: 14.8 µM (inactive) | GI50 [35]: 68.5 µM (inactive) | GI50 [36]: > 100 µM (inactive) | GI50 [37]: > 100 µM (inactive) | GI50 [38]: > 100 µM (inactive) | GI50 [39]: > 100 µM (inactive) | GI50 [40]: > 100 µM (inactive) | GI50 [42]: > 100 µM (inactive) | GI50 [43]: > 100 µM (inactive) | GI50 [44]: > 100 µM (inactive) | GI50 [45]: > 100 µM (inactive) | GI50 [46]: 37.7 µM (inactive) | GI50 [47]: > 100 µM | GI50 [48]: > 100 µM (inactive) | GI50 [49]: > 100 µM (inactive) | GI50 [50]: 11.4 µM (inactive) | GI50 [51]: > 100 µM (inactive) | GI50 [52]: > 100 µM (inactive) | GI50 [53]: > 100 µM (inactive) | GI50 [54]: > 100 µM (inactive)

Cc1cc2c(cc1C)N1Cc3c(ccc(C)c3C)N(C2)C1.Cc1cc2c(cc1C)N1Cc3cc(C)c(C)cc3N(C2)C1
GI50 [1]: 92.5 µM (inactive) | GI50 [2]: > 100 µM (inactive) | GI50 [3]: > 100 µM (inactive) | GI50 [4]: > 100 µM (inactive) | GI50 [6]: 35.6 µM (inactive) | GI50 [7]: > 100 µM (inactive) | GI50 [10]: > 100 µM (inactive) | GI50 [11]: > 100 µM (inactive) | GI50 [12]: 89.5 µM (inactive) | GI50 [13]: > 100 µM (inactive) | GI50 [14]: > 100 µM (inactive) | GI50 [16]: > 100 µM (inactive) | GI50 [17]: 10 µM (inactive) | GI50 [18]: > 100 µM (inactive) | GI50 [19]: > 100 µM (inactive) | GI50 [20]: > 100 µM (inactive) | GI50 [24]: > 100 µM (inactive) | GI50 [25]: > 100 µM (inactive) | GI50 [26]: > 100 µM (inactive) | GI50 [27]: > 100 µM (inactive) | GI50 [55]: > 100 µM (inactive) | GI50 [28]: > 100 µM (inactive) | GI50 [29]: > 100 µM (inactive) | GI50 [30]: 70.8 µM (inactive) | GI50 [31]: > 100 µM (inactive) | GI50 [32]: > 100 µM (inactive) | GI50 [33]: > 100 µM (inactive) | GI50 [34]: > 100 µM (inactive) | GI50 [36]: 35.2 µM (inactive) | GI50 [37]: > 100 µM (inactive) | GI50 [39]: > 100 µM (inactive) | GI50 [40]: 52 µM (inactive) | GI50 [42]: > 100 µM (inactive) | GI50 [43]: > 100 µM (inactive) | GI50 [44]: > 100 µM (inactive) | GI50 [45]: > 100 µM (inactive) | GI50 [56]: > 100 µM (inactive) | GI50 [46]: 53.6 µM (inactive) | GI50 [57]: > 100 µM (inactive) | GI50 [48]: > 100 µM (inactive) | GI50 [49]: > 100 µM (inactive) | GI50 [50]: > 100 µM (inactive) | GI50 [51]: 86.7 µM (inactive) | GI50 [58]: > 100 µM (inactive) | GI50 [52]: > 100 µM (inactive) | GI50 [53]: > 100 µM (inactive) | GI50 [54]: 74.5 µM (inactive)

Source: ChEMBL document CHEMBL1201862, “PubChem BioAssay data set” (2004)
